Results published in US20240376480A1, “TREATMENT OF ELEVATED METABOLITE LEVELS USING NANOCARRIERS” (RAMOT AT TEL-AVIV UNIVERSITY LTD., priority 2021, published 2024).

Columns and labels:
aah1Δ apt1Δ yeast model [1] = details: TA added to the media; cited from earlier work
aah1Δ apt1Δ yeast model [2] = test: Yeast growth assay (OD600) in excess-adenine yeast model; format: cell-based; details: low and high adenine concentrations (1 mg/L and 4 mg/L)
Protocol: Yeast growth assays: the strains used in this work were BY4741 (WT) and the adenine salvage mutant, aah1Δ apt1Δ, that was established by a disruption of both AAH1 and APT1. The strains were grown overnight at 30° C. in synthetic defined SD medium (6.7 g/L Yeast Nitrogen Base without Amino Acids (Difco) and 20 g/L glucose (Merck)) containing a specific mixture of amino acids and nucleobases (without adenine). For OD600 measurements, strains were diluted to OD600=0.01. 200 μL of cells were platted on 96 wells microplates (Greiner, F-BOTTOM) with increasing concentrations of adenine (1, 2 and 4 mg/L) and with 2.5% (V/V) of the VLP-riboswitch nano-carries and incubated at 30° C. for 25 h with continuous shaking. OD600 was measured using Tecan™ SPARK 10M plate reader.
The aah1Δ apt1Δ mutant yeast model was grown in media without adenine or in media with 1, 2, and 4 mg/L of adenine, respectively.

[3] = ligand adenine; cited from earlier work

Molecule	amyloid-like structures of the adenine inside the yeast (aah1Δ apt1Δ yeast model [1])	growth of the model yeast (aah1Δ apt1Δ yeast model [2])	Kd [3]
O=C(OC[C@H]1O[C@@H](OC(=O)c2cc(O)c(O)c(OC(=O)c3cc(O)c(O)c(O)c3)c2)[C@H](OC(=O)c2cc(O)c(O)c(OC(=O)c3cc(O)c(O)c(O)c3)c2)[C@@H](OC(=O)c2cc(O)c(O)c(OC(=O)c3cc(O)c(O)c(O)c3)c2)[C@@H]1OC(=O)c1cc(O)c(O)c(OC(=O)c2cc(O)c(O)c(O)c2)c1)c1cc(O)c(O)c(OC(=O)c2cc(O)c(O)c(O)c2)c1 [TA, tannic acid]	significant decrease	showed an improved growth	
A58U riboswitch: pbuE adenine riboswitch with uracil substituted for adenine at position 58 (nucleic acid, expressed or natural sequence) GCGCGTTGTATAACCTCAATAATATGGTTTGAGGGTGTCTACCAGGAACCGTAAATTCCTGATTACAACGC			273 ± 17 nM
